According to patent US20260265055A1, “Sulfine-Based Compounds for Generating Hydrogen Persulfide” (Brown University, priority 2023, published 2026):

Target: T1, GAPDH (Oryctolagus cuniculus, UniProt P46406)
T1 construct: GAPDH (from rabbit muscle, #G2267, Sigma-Aldrich); purchased Sigma-Aldrich G2267; host or cells: rabbit muscle (tissue-purified)
Assay: GAPDH protein S-persulfidation (SSP4 fluorescence, LC-MS/MS)
Format: biochemical, rabbit
Procedure: One of the primary functions of H2S2 is to induce protein S-persulfidation. Existing methods treat proteins with Na2S2 directly to obtain the persulfidated proteins. The present disclosure contemplates the use of TTS and H2S to persulfidate proteins as a comparison with Na2S2. GAPDH was used as the protein model and its persulfidation was evaluated by SSP4 using a protocol described in Shieh, M. et al., Shining a light on SSP4: a comprehensive analysis and biological applications for the detection of sulfane sulfurs. Redox Biol. 2022, 56, 102433 and Ni, X. et al., A sweet H2S/H2O2 dual release system and specific protein S-persulfidation mediated by thioglucose/glucose oxidase. J. Am. Chem. Soc. 2021, 143, 13325-13332. Reduced GAPDH (100 μM) was individually treated with 10 eq. of TTS+Na2S or Na2S2, as well as control reagents (TTS or Na2S only). The protein samples were then purified using Zeba Spin Desalting Columns (7K MWCO), diluted (to 10 μM), and treated with SSP4 (5 μM). Fluorescence signals were recorded to reflect persulfidation levels. […] To provide further evidence of persulfidation in the GAPDH system, TTS+Na2S-treated GAPDH was alkylated with HPE-IAM to stabilize the protein persulfides.
216 μL of PBS (50 mM, pH 7.4) was added to 3.9 mg of GAPDH (from rabbit muscle, #G2267, Sigma-Aldrich) to obtain a concentration of 500 μM (MW: 36 kDa). DTT (10 mM in DMSO, 11.35 μL) was added for a final equal concentration with the GAPDH. The solution was incubated in the dark at room temperature for 30 min. Zeba 7K MWCO spin columns were prepared and used according to manufacturer's instructions with 3 PBS washes. Excess reductant was removed by column purification with the Zeba 7K MWCO columns. The resulting reduced protein concentration was determined by the absorbance at 280 nm (εmM=30.4 mM-1 cm-1) using the Nanodrop One Microvolume UV-Vis Spectrophotometer (ThermoFisher Scientific). For controls, reduced GAPDH was treated with NEM (1:5 equiv.) and incubated at rt in the dark for 30 min before excess NEM was removed by the Zeba 7K MWCO columns. Next, the reduced protein was diluted to a final concentration of 100 μM in a final volume of 100 μL and treated with TTS (10 μL of 10 mM in DMSO for a final concentration of 1 mM), Na2S (10 μL of 10 mM in MilliQ H2O for a final concentration of 1 mM), both TTS and Na2S, or Na2S2 (10 μL of 10 mM in MilliQ H2O for a final concentration of 1 mM). For example, if the reduced protein (361 μM) was only to be treated with TTS, 62.3 μL of PBS (50 mM, pH 7.4) would first be added to an Eppendorf tube, followed by 27.7 μL of protein, and followed by 10 μL of TTS. TTS+Na2S and Na2S2 samples were also prepared at the concentrations above without any protein, where PBS (50 mM, pH 7.4) was used in place of the proteins (volume-wise). Samples were incubated at room temperature for 30 min in the dark before being purified by Zeba 7K MWCO columns (three times to ensure proper removal of excess treatment molecules) and quantified by absorbance. […] All samples were then incubated with SSP4 (5 μL of 100 μM in DMSO for a final concentration of 5 μM) in individual wells of a black clear flat bottom 96-well plate. The final volume was 100 μL. For example, if the persulfidated protein (99.5 μM) was to be examined, 84.95 μL of PBS (50 mM, pH 7.4) would first be added to a well, followed by 10.05 μL of protein, and then followed by 5 μL of SSP4. Incubation occurred at room temperature in the dark for 30 min before being measured on the SpectraMax iD3 microplate reader (ex: 485 nm; em: 525 nm).

T1 sequence (P46406 whole entry): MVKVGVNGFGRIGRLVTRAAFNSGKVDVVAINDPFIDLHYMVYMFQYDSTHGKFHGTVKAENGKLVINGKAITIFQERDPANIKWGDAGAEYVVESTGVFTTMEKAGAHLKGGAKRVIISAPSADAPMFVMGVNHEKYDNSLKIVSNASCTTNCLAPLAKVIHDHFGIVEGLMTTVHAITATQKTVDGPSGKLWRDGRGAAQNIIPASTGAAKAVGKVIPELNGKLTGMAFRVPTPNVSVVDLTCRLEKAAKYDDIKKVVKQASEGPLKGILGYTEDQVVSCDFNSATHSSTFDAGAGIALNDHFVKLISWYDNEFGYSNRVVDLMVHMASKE

## COC(=O)c1ccc(=S=O)sc1 [TTS, 2H-thiopyran-2-thione sulfine]
TTS 1 mM + Na2S 1 mM vs Na2S2 1 mM, one-way ANOVA
  GAPDH persulfidation signal compared with Na2S2: significantly higher signals than Na2S2
TTS+Na2S-treated GAPDH
  GAPDH persulfidation by LC-MS/MS after HPE-IAM alkylation and trypsin digestion: successful protein persulfidation
Reduced GAPDH 100 μM treated with TTS 1 mM + Na2S 1 mM
  SSP4 fluorescence of persulfidated GAPDH: strong fluorescence
Reduced GAPDH 100 μM treated with the reagent only (1 mM)
  SSP4 fluorescence of persulfidated GAPDH: did not give any notable fluorescence
